{
  "source": "patent US20150104392A1",
  "about": "“COMPOSITIONS, BIOMARKERS AND THEIR USE IN THE TREATMENT OF CANCER” (Aptose Biosciences Inc., priority 2013, published 2015)",
  "key": {"KG-1 xenograft": {"system": "KG-1 xenograft", "assay": "KG-1 AML xenograft model", "assay_type": "in vivo, mice", "details": "15 mg/kg iv, bid, 2T/wk; single agent", "method": "The anti-tumor activity of LOR-253HCl was evaluated in yet another in vivo animal model of human AML. Xenograft model mice for AML cell line KG-1 was generated with the same method as in Examples 9 and 10, and were treated with LOR-253HCl or control according to the following regime.\nLOR-253-15 mg/kg-iv, bid, 2T/wk-Day 1"}, "HL-60 xenograft": {"system": "HL-60 xenograft", "assay": "HL-60 AML xenograft model", "assay_type": "in vivo, athymic nude mice", "details": "3 cycles", "method": "The human AML cell line HL-60 was implanted subcutaneously into athymic nude mice. Tumor-bearing mice were treated with LOR-253HCl alone or in combination with azacitidine, with azacitidine alone, or with a negative control vehicle. The detailed treatment conditions are as follows. • Group 1: Negative control group. LOR-253HCl control vehicle, 2×/day, 3 cycles of 2 consecutive days, 5 days between cycles, i.v., plus 1% D-mannitol every four days by s.c. injection • Group 2: Azacitidine (in 1% D-mannitol) at 10 mg/kg 1× on days 1, 4, 8, 11, 15 and 18 by subcutaneous (s.c.) injection • Group 3: LOR-253HCl at 15 mg/kg bid for 3 cycles, each cycle is 2 consecutive days of dosing per week with 5 days of non-dosing, i.v., n=9 (2T-5B) • Group 4: LOR-253HCl at 15 mg/kg 2×/day (bid) for 3 cycles, each cycle is 1 day of dosing per week with 6 days of non-dosing, i.v., n=9 (1T-6B) • Group 5: Combination of LOR-253 (2T-5B) and azacitidine. LOR-253HCl at 15 mg/kg bid for 3 cycles, each cycle is 2 consecutive days of dosing per week with 5 days of non-dosing, i.v., n=9 (2T-5B) plus azacitidine at 10 mg/kg 1× every four days by s.c. injection • Group 6: Combination of LOR-253 (1T-6B) and azacitidine. […]\nTumor sizes were measured three times per week."}, "[1]": {"system": "advanced or metastatic solid tumours", "assay": "Open-label phase 1 study in patients with advanced or metastatic solid tumours", "assay_type": "in vivo, human", "method": "Phase I: This was an open-label, phase 1 study to determine the maximum tolerated dose (MTD) or appropriate target dose if MTD not reached to identify the recommended phase 2 dose of LOR-253HCl in patients with advanced or metastatic solid tumours. In the first set of doses, LOR-253HCl was given in ascending doses until the maximum administered dose or appropriate target dose is reached. In the other set of doses, LOR-253HCl was given in ascending doses starting from 20 mg/m^2 until the maximum administered dose or appropriate target dose is reached. Patient as treated on LOR-253HCl for 2 cycles for the evaluation. • Other Name: No other names are used. • Study Type: Interventional • Study Design: Endpoint Classification: Safety Study • Intervention Model: Single Group Assignment • Masking: Open Label • Primary Purpose: Treatment • Official Title: Open-Label, Phase 1 Study of LOR-253HCl in Patients With Advanced or Metastatic Solid Tumours\n• To determine the maximum tolerated dose (MTD) or appropriate target dose if MTD not reached to identify the recommended phase 2 dose of LOR-253HCl in patients with advanced or metastatic solid tumours. [Time Frame: 8 weeks]\n• To characterize the safety profile of LOR-253HCl when administered to patients with advanced or metastatic solid tumours. [Time Frame: 8 weeks]\n• 1. Male or female 18 years of age or older. • 2. Histologically confirmed diagnosis of solid tumor for which no effective therapy is available or that is unresponsive to conventional therapy. • 3. Meet laboratory parameter requirements at study entry.\n• 1. Chemotherapy, radiotherapy, biologic therapy, immunotherapy or any other investigational drugs within 21 days of beginning study treatment with LOR-253HCl. • 2. A hematologic malignancy. • 3. A history of brain or other central nervous system metastases. • 4. Have a presence of a significant infection. • 5. Clinically significant autoimmune disease. • 6. Uncontrolled intercurrent illness. • 7. With iron or copper overload syndromes. • 8. Pregnancy or breast feeding."}, "[2]": {"assay": "Pharmacokinetics, serum level after i.v. bolus", "assay_type": "in vivo", "details": "CD-1 nude mice; i.v. bolus 1, 5 and 15 mg/kg", "method": "To study the pharmacokinetic (PK) […], CD-1 nude mice were treated by i.v. bolus injections of LOR-253HCl at 1, 5, and 15 mg/kg. The serum level of LOR-253 was measured."}, "THP-1 xenograft": {"system": "THP-1 xenograft", "assay": "THP-1 AML xenograft model", "assay_type": "in vivo, mice", "details": "Group 2: single agent, i.v. Days 1, 2, 8, 9, 15, 16; IP Days 22-25, 29, 30", "method": "The anti-tumor activity of LOR-253HCl, as a single agent and in combination with azacitidine, was evaluated in yet another in vivo animal model of human AML. Xenograft model mice for AML cell line THP-1 was generated with the same method as in Examples 9 and 10, and were treated with LOR-253HCl alone or in combination with azacitidine, with azacitidine alone, or with a negative control vehicle, and tumor sizes were measured as described in Examples 9 and 10. The detailed treatment conditions are shown as follows, and the results are shown in FIG. 26. • Group 1 Control: received i.v. treatments with LOR-253 control vehicle (CV) on Days 1, 2, 8, 9, 15 &16; received subcutaneous (SC) treatments with Azacitidine control vehicle on Days 1, 4, 8, 11, 15, 18, 22, 25, 29 &32; and received intraperitoneal (IP) treatments with LOR-253-CV on Days 22, 23, 24, 25, 29&30. • Group-2-LOR-253: received i.v. treatments on Days 1, 2, 8, 9, 15 &16; received IP treatments on Days 22, 23, 24, 25, 29&30 • Group-3-Azacitidine: received SC treatments on Days 1, 4, 8, 11, 15, 18, 22, 25, 29 &32. • Group-4-Combination: received i.v. treatments with LOR-253 on Days 1, 2, 8, 9, 15 &16; received IP treatments with LOR-253 on Days 22, 23, 24 &25; and received SC-treatment with Azacitidine on Days 1, 4, 8, 11, 15, 18, 22 &25"}, "Kasumi-1 xenograft": {"system": "Kasumi-1 xenograft", "assay": "Kasumi-1 AML xenograft model", "assay_type": "in vivo", "details": "30 mg/kg (15 mg/kg twice per day) i.v., two consecutive days per week, four weeks", "method": "The anti-tumor activity of LOR-253HCl was evaluated in another in vivo animal model of human AML. The human AML cell line Kasumi-1 was implanted subcutaneously into athymic nude mice. Some tumor-bearing mice were treated with LOR-253HCl at 30 mg/kg (15 mg/kg twice per day) for two consecutive days per week for four weeks (the “LOR-253 treatment group”). LOR-253 was administered by intravenous (i.v.) bolus injection as the hydrochloric salt form (LOR-253-HCl) formulated in 20% Polyethylene Glycol 400, 10% Propylene Glycol, and 10% Solutol HS in 60% water.\nThe major endpoint was to observe for tumor growth inhibition after treatment with LOR-253HCl and compare the anti-tumor effects of different dosing schedules. Tumor sizes were measured three times per week from day 10 after the tumor cell inoculation. Tumors were measured in three dimensions using calipers and the volume was expressed in millimeters cubed using the formula: V=0.5 a×b×c, where a, b, and c are the length, width, and height of the tumor, respectively. Mean tumor volumes+/−standard error (SE) were calculated from each measurement and then plotted in a standard graph to compare the anti-tumor efficacy of drug treatment to that of control (FIG. 20). Toxicity was assessed by clinical observations and by measurement of mouse body weight in grams twice per week over the course of the study. Mean body weights were calculated from each measurement and then plotted to compare body weight changes in the drug treatment group to that of control (FIG. 21)."}},
  "data": [
    {"smiles": "Cc1[nH]c2ccc(F)cc2c1-c1nc2c3cccnc3c3ncccc3c2[nH]1", "note": "[LOR-253HCl]", "values": [
      {"measurement": "tumor growth inhibition", "setting": "KG-1 xenograft", "result": "significant tumor growth inhibition"},
      {"measurement": "tumor growth inhibition", "setting": "HL-60 xenograft; Group 3: 15 mg/kg bid i.v., two consecutive days per week (2T-5B)", "result": "inhibited growth of HL-60 tumors to approximately the same extent as or slightly more than azacitidine alone"},
      {"measurement": "tumor growth inhibition", "setting": "HL-60 xenograft; Group 4: 15 mg/kg bid i.v., one day per week (1T-6B)", "result": "inhibited growth of HL-60 tumors to approximately the same extent as or slightly more than azacitidine alone"},
      {"measurement": "Most common AE and SAE", "setting": "[1]; N=27 patients, 7 dose levels", "result": "Fatigue and 1 case of reversible hypophosphatemia"},
      {"measurement": "Safety profile", "setting": "[1]; N=27 patients, 7 dose levels", "result": "Excellent Safety Profile"},
      {"measurement": "tumor response in individual patient (FIG. 12)", "setting": "[1]; patient with NSCLC (poorly differentiated adenocarcinoma), extensive metastases, refractory", "result": "Tumor shrinkage"},
      {"measurement": "RECIST partial response", "setting": "[1]; patients with advanced solid tumors", "result": "No RECIST PR"},
      {"measurement": "Stable Disease, evaluable patients", "setting": "[1]; patients with advanced solid tumors, dose-escalating, 7 dose levels", "result": 41, "unit": "%"},
      {"measurement": "serum level of LOR-253", "setting": "[2]", "result": "dose related increase"},
      {"measurement": "tumor growth inhibition", "setting": "THP-1 xenograft", "result": "inhibited growth of THP-1 tumors to about the same extent as or slightly more than azacitidine alone"},
      {"measurement": "body weight", "setting": "Kasumi-1 xenograft", "result": "did not show body weight loss"},
      {"measurement": "overt signs of toxicity", "setting": "Kasumi-1 xenograft", "result": "did not show other overt signs of toxicity"},
      {"measurement": "tumor growth inhibition vs vehicle control", "setting": "Kasumi-1 xenograft; p=0.028 Student's t-test", "result": "statistically significantly increased inhibitory effect"}
    ]}
  ]
}
